Test results reported in ChEMBL document CHEMBL1770144, “Discovery of potent nucleotide-mimicking competitive inhibitors of hepatitis C virus NS3 helicase” (Bioorg Med Chem Lett, 2011).
pKi: −log10 of the molar value.

Experiments:
[1] = Competitive inhibition of Hepatitis C virus NS3 helicase; set-up: species or system Hepacivirus hominis
[2] = Competitive inhibition of Hepatitis C virus NS3 helicase using nucleic acid as substrate; set-up: species or system Hepacivirus hominis

SMILES	pKi [1]	pKi [2]
CCOc1ccc2c(NNS(=O)(=O)c3ccccn3)c3c(nc2c1)CCCC3	7.00	
CCOc1ccc2c(NNC(=O)c3cnccn3)cc(C)nc2c1	6.12	
CCOc1ccc2c(NNC(=O)c3ccccc3)cc(C)nc2c1	3.90	
CCOc1ccc2c(NNC(=O)c3ccco3)cc(C)nc2c1	< 3.52	
CCOc1ccc2c(NNC(=O)[C@@H]3CSCN3)cc(C)nc2c1	< 3.52	
CCOc1ccc2c(NNC(=O)c3cc4ccccc4cn3)cc(C)nc2c1	3.60	
CCOc1ccc2c(NNS(=O)(=O)c3ccccc3)cc(C)nc2c1	5.30	
CCOc1ccc2c(NNS(=O)(=O)c3ccc(C)cc3)cc(C)nc2c1	4.12	
CCOc1ccc2c(NNS(=O)(=O)c3ccccn3)cc(C)nc2c1	6.52	
Cc1cc(NNC(=O)c2cnccn2)c2ccccc2n1	< 3.52	
CCOc1ccc2nc(C)cc(NNC(=O)c3cnccn3)c2c1	< 3.52	
CCOc1ccc2c(NNC(=O)c3cnccn3)c3c(nc2c1)CCCC3	7.70	7.70
O=C(NNc1c2c(nc3ccccc13)CCCC2)c1cnccn1	< 3.52	
CCOc1ccc2c(NNS(=O)(=O)c3ccccc3)c3c(nc2c1)CCCC3	6.80	
